Reference: patent EP4341264B1, “PYRROLOPIRIMIDINE DERIVATIVES AND THEIR USE IN THE TREATMENT OF LEISHMANIASIS” (Drugs for Neglected Diseases Initiative, priority 2021, dated 2022)
Like-named read-outs stand apart in the source and are kept apart here.

Tests used:
[1] = test system: L. donovani (MHOM/ NP/2003/BPK282/0-cl4); assay: Leishmania clinical isolate panel screen (drug-susceptibility assay in infected macrophages); assay type: cell-based; settings: Macrophage, read-out: IC50 Mean ± SEM
Procedure: (§1) Female Swiss mice (BW ~20 g) were purchased from a commercial source (Janvier France) and kept in quarantine for 1 week. The animals were housed in group and drinking water was available ad libitum. To harvest peritoneal macrophages, the mice were first stimulated by intraperitoneal injection of 1 mL of starch solution (2% in PBS). After 24 h, macrophages were collected in RPMI-1640 supplemented with 5% iFCS, 2% penicillin-streptomycin and 1% L-glutamine by peritoneal lavage and immediately distributed in a 96-well plate at a concentration of 30,000 cells/well. The cells were incubated for 24 h at 37°C and 5 % CO2 to allow cell attachment.
(§2) Strains of L. donovani, L. infantum, L. major, L. tropica, L. guyanensis and L. panamensis were selected based on their intrinsic susceptibility to the commonly used reference drugs and their geographic distribution. All strains were cultivated in HOMEM promastigote medium and sub-cultured twice weekly. Passage numbers were kept as low as possible to avoid loss of virulence. For infection of the macrophages, metacyclic promastigote cultures were examined light microscopically for the abundant presence of metacyclic promastigotes. Upon counting, promastigotes were centrifuged and diluted in RPMI-1640 to the desired concentration. The infection ratio varied based on the ability of the strain to adequately infect the host cells and ranged from 5 to 20 promastigotes per macrophage. Macrophages were infected by adding 100 µL promastigote suspension per well onto the macrophages. When ex vivo amastigotes were available (only for two lab strains), macrophages were infected at a ratio of 10/1.
(§3) Stock solutions of the DNDi lead compounds were prepared in 100% DMSO at 20 mM and robotically further diluted in water. Miltefosine (MIL) was included as reference and formulated in water at a concentration of 20 mM. The medium was discarded from the plates to remove any residual non-internalized promastigotes and replaced by fresh RPMI-1640 medium supplemented with iFBS, P/S and L-glutamine (as described above). Next, a 2-fold dilution series of each lead compound was added to the plate with 64 µM as the highest in test-concentration for the DNDi leads and 40 µM for MIL. The 96-well plates were further incubated at 34-37°C and 5% CO2. For staining, the culture medium was discarded, and the plates were left to dry for 2-4 hours. The cells were then fixated with methanol for 10 minutes and stained with a 1/5 Giemsa dilution in water for 15 minutes. The percentage infection-inhibition compared to a positive control (untreated infected macrophages) was microscopically determined and used to calculate the IC50 and IC90 values.

[2] = test system: L. donovani (MHOM/NP/03/BPK275/0-cl18); assay: as above; assay type: cell-based; settings: Macrophage, Visceral leishmaniasis, L. donovani (MHOM/NP/03/BPK275/0-cl18), Miltefosine: mean only, read-out: IC50 Mean ± SEM
Procedure: as §1, §2, §3

[3] = test system: L. guyanensis (MHOM/PE/02/PER 054/0); assay: as above; assay type: cell-based; settings: Macrophage, Cutaneous leishmaniasis, L. guyanensis (MHOM/PE/02/PER 054/0), Miltefosine: mean only, read-out: IC50 Mean ± SEM
Procedure: as §1, §2, §3

[4] = test system: L. infantum (LEM3323-cl4 MIL); assay: as above; assay type: cell-based; settings: Macrophage, read-out: IC50 Mean ± SEM
Procedure: as §1, §2, §3

[5] = test system: L. infantum (LEM3323-cl4 PMM); assay: as above; assay type: cell-based; settings: Macrophage, read-out: IC50 Mean ± SEM
Procedure: as §1, §2, §3

[6] = test system: L. infantum (MHOM/BR/2007/WC (L3015)); assay: as above; assay type: cell-based; settings: Macrophage, Visceral leishmaniasis, L. infantum (MHOM/BR/2007/WC (L3015)), Miltefosine: mean only, read-out: IC50 Mean ± SEM
Procedure: as §1, §2, §3

[7] = test system: L. infantum (MHOM/ES/2016/LLM-2346); assay: as above; assay type: cell-based; settings: Macrophage, Visceral leishmaniasis, L. infantum (MHOM/ES/2016/LLM-2346), Miltefosine: mean only, read-out: IC50 Mean ± SEM
Procedure: as §1, §2, §3

[8] = test system: L. infantum (MHOM/FR/96/LEM3323-cl4); assay: as above; assay type: cell-based; settings: Macrophage, Visceral leishmaniasis, L. infantum (MHOM/FR/96/LEM3323-cl4), Miltefosine: mean only, read-out: IC50 Mean ± SEM
Procedure: as §1, §2, §3

[9] = test system: L. major (MHOM/IL/81/Friedlin); assay: as above; assay type: cell-based; settings: Macrophage, Cutaneous leishmaniasis, L. major (MHOM/IL/81/Friedlin), Miltefosine: mean only, read-out: IC50 Mean ± SEM
Procedure: as §1, §2, §3

[10] = test system: L. major (MHOM/SA/85/JISH118); assay: as above; assay type: cell-based; settings: Macrophage, Cutaneous leishmaniasis, L. major (MHOM/SA/85/JISH118), Miltefosine: mean only, read-out: IC50 Mean ± SEM
Procedure: as §1, §2, §3

[11] = test system: L. panamensis (MHOM/PA/71/LS94); assay: as above; assay type: cell-based; settings: Macrophage, Cutaneous leishmaniasis, L. panamensis (MHOM/PA/71/LS94), Miltefosine: mean only, read-out: IC50 Mean ± SEM
Procedure: as §1, §2, §3

[12] = test system: L. tropica (MHOM/AF/2015/HTD7); assay: as above; assay type: cell-based; settings: Macrophage, Cutaneous leishmaniasis, L. tropica (MHOM/AF/2015/HTD7), Miltefosine: mean only, read-out: IC50 Mean ± SEM
Procedure: as §1, §2, §3

[13] = test system: L. infantum; assay: VL hamster model in vivo efficacy (reduction of parasite load vs. control); settings: 40 mg/kg qd, 5 days
Procedure: The in vivo efficacy of the compounds C1, C3, C4, and miltefosine was evaluated in a VL hamster model infected with L. infantum. The in vivo studies were performed in accordance with the methods described by Van den Kerkhof et al. [IJP: Drugs and Drug Resistance, 2018, 8, Issue 1, 81-86]. Following treatment, the reduction of parasite load vs. control was determined in different body compartments (liver, spleen, and bone marrow) with results presented in Table 4. Table 4. Hamster in vivo efficacy

[14] = test system: L. infantum (MHOM/MA/67/ITMAP263); settings: cited from earlier work
[15] = test system: L. donovani (MHOM/ET/67/L82); settings: cited from earlier work
[16] = test system: MRC-5SV2 cells; settings: printed in SI column; data from IJP: Drugs and Drug Resistance, 2018, 8, 81-86; cited from earlier work

SMILES: CCCCCCCCCCCCCCCCOP(=O)([O-])OCC[N+](C)(C)C [Miltefosine, reference compound]
- IC50 [1]: 2010 nM
- IC50 [2]: 2070 nM
- IC50 [3]: 8060 nM
- IC50 [4]: 2010 nM
- IC50 [5]: 20300 nM
- IC50 [6]: 2690 nM
- IC50 [7]: 2160 nM
- IC50 [8]: 1810 nM
- IC50 [9]: 11300 nM
- IC50 [10]: 24000 nM
- IC50 [11]: 1810 nM
- IC50 [12]: 2160 nM
- % Parasite reduction Bone marrow ([13]; bone marrow): 92.1-99.0%
- % Parasite reduction Liver ([13]; liver): 97.0-98.2%
- % Parasite reduction Spleen ([13]; spleen): 95.7-99.5%
- IC50 ([14]; L. infantum infected macrophages, IJP: Drugs and Drug Resistance, 2018, 8, Issue 1, 81-86): 3500 ± 400 nM
- IC50 ([14]; L. infantum, data from IJP: Drugs and Drug Resistance, 2018, 8, 81-86): 3500 ± 400 nM
- IC50 ([15]; L. donovani infected macrophages, IJP: Drugs and Drug Resistance, 2018, 8, Issue 1, 81-86): 1800 ± 400 nM
- IC50 ([15]; L. donovani, data from IJP: Drugs and Drug Resistance, 2018, 8, 81-86): 1800 ± 400 nM
- CC50 [16]: 38500 nM
